These compounds were tested against human A2A receptor (A2AR) (Homo sapiens, UniProt P29274) (assay: Luciferase reporter assay (HEK293-A2AR-luc2p/CRE/Hygro cells, 3 nM CGS21680)). Details: 3 nM CGS21680, 5 h incubation.
Type: cell-based
In short: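 Antagonist (0.1–10000 nM) and 3 nM CGS21680 were co-added for 5 h to stable HEK293-A2AR-luc2p/CRE cells, 18 h after seeding in 1% FBS medium containing adenosine deaminase. Luminescence was normalized to agonist alone (100%), and IC50 came from the dose–inhibition curve.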

Sequence of human A2A receptor (A2AR) (P29274 whole entry): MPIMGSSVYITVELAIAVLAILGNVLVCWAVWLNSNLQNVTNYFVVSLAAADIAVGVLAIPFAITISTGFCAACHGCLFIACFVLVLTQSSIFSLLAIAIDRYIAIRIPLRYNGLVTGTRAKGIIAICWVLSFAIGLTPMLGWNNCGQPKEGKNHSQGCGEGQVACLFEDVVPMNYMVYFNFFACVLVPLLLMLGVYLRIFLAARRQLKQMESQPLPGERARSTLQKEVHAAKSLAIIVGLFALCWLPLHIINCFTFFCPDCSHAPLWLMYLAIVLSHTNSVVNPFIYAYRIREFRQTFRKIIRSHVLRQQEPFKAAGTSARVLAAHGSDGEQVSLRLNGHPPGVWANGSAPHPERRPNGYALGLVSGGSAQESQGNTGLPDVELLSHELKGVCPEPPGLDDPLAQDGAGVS

IC50 [nM] | Compound
12.2 | CN1CCN(CCCOc2ccc(N3CCN(C(=O)[C@](C)(c4ccccc4)n4ncc5c4nc(N)n4nc(-c6ccco6)nc54)CC3)cc2)CC1 [Compound A82a, (S)-2-(5-amino-2-(furan-2-yl)-7H-pyrazolo[4,3-e][1,2,4]triazolo[1,5-c]pyrimidin-7-yl)-1-(4-(4-(3-(4-methylpiperazin-1-yl)propoxy)phenyl)piperazin-1-yl)-2-phenylpropan-1-one]
16.8 | COCCOc1ccc(N2CCN(C(=O)[C@](C)(c3ccccc3)n3ncc4c3nc(N)n3nc(-c5ccco5)nc43)CC2)cc1F [Compound A66a, (S)-2-(5-amino-2-(furan-2-yl)-7H-pyrazolo[4,3-e][1,2,4]triazolo[1,5-c]pyrimidin-7-yl)-1-(4-(3-fluoro-4-(2-methoxyethoxy)phenyl)piperazin-1-yl)-2-phenylpropan-1-one]
1.3 | Cc1ccc2c(c1)CN(C(=O)C(c1ccccc1)n1ncc3c1nc(N)n1nc(-c4ccco4)nc31)CC2 (stereo not shown) [Compound B17, 2-(5-amino-2-(furan-2-yl)-7H-pyrazolo[4,3-e][1,2,4]triazolo[1,5-c]pyrimidin-7-yl)-1-(7-methyl-3,4-dihydroisoquinolin-2(1H)-yl)-2-phenylethan-1-one]
246 | CC(C)CC(C(=O)N1CCN(c2ccc(F)cc2F)CC1)n1ncc2c1nc(N)n1nc(-c3ccco3)nc21 (single isomer, unassigned) [Compound A22a]
5 | CC(C(=O)N1CCN(c2ccc(F)cc2)CC1)(c1ccccc1)n1ncc2c1nc(N)n1nc(-c3ccco3)nc21 (stereo not shown) [Compound A70, 2-(5-amino-2-(furan-2-yl)-7H-pyrazolo[4,3-e][1,2,4]triazolo[1,5-c]pyrimidin-7-yl)-1-(4-(4-fluorophenyl)piperazin-1-yl)-2-phenylpropan-1-one]
2.2 | COCCOc1ccc2c(c1)CCN(C(=O)C(c1ccccc1)n1ncc3c1nc(N)n1nc(-c4ccco4)nc31)C2 (stereo not shown) [Compound B15, 2-(5-amino-2-(furan-2-yl)-7H-pyrazolo[4,3-e][1,2,4]triazolo[1,5-c]pyrimidin-7-yl)-1-(6-(2-methoxyethoxy)-3,4-dihydroisoquinolin-2(1H)-yl)-2-phenylethan-1-one]
7 | Nc1nc2c(cnn2C(C(=O)N2CCc3ccc(OC(F)(F)F)cc3C2)c2ccccc2)c2nc(-c3ccco3)nn12 (stereo not shown) [Compound B6, 2-(5-amino-2-(furan-2-yl)-7H-pyrazolo[4,3-e][1,2,4]triazolo[1,5-c]pyrimidin-7-yl)-2-phenyl-1-(7-(trifluoromethoxy)-3,4-dihydroisoquinolin-2(1H)-yl)ethan-1-one]
15.6 | COCCOc1ccc(N2CCN(C(=O)C(C)(c3ccccc3)n3ncc4c3nc(N)n3nc(-c5ccco5)nc43)C[C@H]2C)cc1 (stereo partly drawn) [Compound A73, 2-(5-amino-2-(furan-2-yl)-7H-pyrazolo[4,3-e][1,2,4]triazolo[1,5-c]pyrimidin-7-yl)-1-((R)-4-(4-(2-methoxyethoxy)phenyl)-3-methylpiperazin-1-yl)-2-phenylpropan-1-one]
4.8 | COCCOc1ccc(N2CCN(C(=O)C(C)(c3ccccc3)n3ncc4c3nc(N)n3nc(-c5ccco5)nc43)CC2)c(F)c1 (stereo not shown) [Compound A64, 2-(5-amino-2-(furan-2-yl)-7H-pyrazolo[4,3-e][1,2,4]triazolo[1,5-c]pyrimidin-7-yl)-1-(4-(2-fluoro-4-(2-methoxyethoxy)phenyl)piperazin-1-yl)-2-phenylpropan-1-one]
186 | CCCC(C(=O)N1CCN(c2ccc(OCCOCCOC)cc2)CC1)n1cc2c(nc(N)n3nc(-c4ccco4)nc23)n1 (stereo not shown) [Compound C7, 2-(5-amino-2-(furan-2-yl)-8H-pyrazolo[4,3-e][1,2,4]triazolo[1,5-c]pyrimidin-8-yl)-1-(4-(4-(2-(2-methoxyethoxy)ethoxy)phenyl)piperazin-1-yl)pentan-1-one]
79.8 | COCCOc1ccc(N2CCN(C(=O)C(C)(c3ccccc3)n3cc4c(nc(N)n5nc(-c6ccco6)nc45)n3)CC2)cc1 (single isomer, unassigned) [Compound C25a]
4.3 | CCCC(C(=O)N1CCN(c2ccc(F)cc2F)CC1)n1ncc2c1nc(N)n1nc(-c3ccco3)nc21 (stereo not shown) [Compound A20, 2-(5-amino-2-(furan-2-yl)-7H-pyrazolo[4,3-e][1,2,4]triazolo[1,5-c]pyrimidin-7-yl)-1-(4-(2,4-difluorophenyl)piperazin-1-yl)pentan-1-one]
46 | CO[C@@H]1CCCN(C(=O)C(C)(c2ccccc2)n2ncc3c2nc(N)n2nc(-c4ccco4)nc32)C1 (stereo partly drawn) [Compound B31, 2-(5-amino-2-(furan-2-yl)-7H-pyrazolo[4,3-e][1,2,4]triazolo[1,5-c]pyrimidin-7-yl)-1-((R)-3-methoxypiperidin-1-yl)-2-phenylpropan-1-one]
1.3 | CC(O)COc1ccc(N2CCN(C(=O)C(c3ccccc3)n3ncc4c3nc(N)n3nc(-c5ccco5)nc43)CC2)cc1 (stereo not shown) [Compound A62, 2-(5-amino-2-(furan-2-yl)-7H-pyrazolo[4,3-e][1,2,4]triazolo[1,5-c]pyrimidin-7-yl)-1-(4-(4-(2-hydroxypropoxy)phenyl)piperazin-1-yl)-2-phenylethan-1-one]
2 | COCCOc1ccc(N2CCN(C(=O)C(C)(c3ccccc3F)n3ncc4c3nc(N)n3nc(-c5ccco5)nc43)CC2)cc1 (stereo not shown) [Compound A87, 2-(5-amino-2-(furan-2-yl)-7H-pyrazolo[4,3-e][1,2,4]triazolo[1,5-c]pyrimidin-7-yl)-2-(2-fluorophenyl)-1-(4-(4-(2-methoxyethoxy)phenyl)piperazin-1-yl)propan-1-one]
16.5 | COC(=O)C1CC2(CCN(C(=O)C(C)(c3ccccc3)n3ncc4c3nc(N)n3nc(-c5ccco5)nc43)CC2)C1 (stereo not shown) [Compound B33, methyl 7-(2-(5-amino-2-(furan-2-yl)-7H-pyrazolo[4,3-e][1,2,4]triazolo[1,5-c]pyrimidin-7-yl)-2-phenylpropanoyl)-7-azaspiro[3.5]nonane-2-carboxylate]
160 | COCCOCCOc1ccc(N2CCN(C(=O)C(CC(C)C)n3ncc4c3nc(N)n3nc(-c5ccco5)nc43)CC2)cc1 (single isomer, unassigned) [Compound A17b]
5.3 | COCCOc1cc(F)c(N2CCN(C(=O)C(c3ccccc3)n3ncc4c3nc(N)n3nc(-c5ccco5)nc43)CC2)cc1F (stereo not shown) [Compound A57, 2-(5-amino-2-(furan-2-yl)-7H-pyrazolo[4,3-e][1,2,4]triazolo[1,5-c]pyrimidin-7-yl)-1-(4-(2,5-difluoro-4-(2-methoxyethoxy)phenyl)piperazin-1-yl)-2-phenylethan-1-one]
2.9 | Nc1nc2c(cnn2C(C(=O)N2CCCCC2)c2ccccc2)c2nc(-c3ccco3)nn12 (stereo not shown) [Compound B2, 2-(5-amino-2-(furan-2-yl)-7H-pyrazolo[4,3-e][1,2,4]triazolo[1,5-c]pyrimidin-7-yl)-2-phenyl-1-(piperidin-1-yl)ethan-1-one]
113 | COCCOCCOc1ccc(N2CCN(C(=O)C(C(C)C)n3ncc4c3nc(N)n3nc(-c5ccco5)nc43)CC2)cc1 (stereo not shown) [Compound A12, 2-(5-amino-2-(furan-2-yl)-7H-pyrazolo[4,3-e][1,2,4]triazolo[1,5-c]pyrimidin-7-yl)-1-(4-(4-(2-(2-methoxyethoxy)ethoxy)phenyl)piperazin-1-yl)-3-methylbutan-1-one]
4.6 | CCCCC(C(=O)N1CCN(c2ccc(OCCOCCOC)cc2)CC1)n1ncc2c1nc(N)n1nc(-c3ccco3)nc21 (single isomer, unassigned) [Compound A11a]
3.3 | CC(C(=O)N1CCN(c2cccc(C(=O)NCC3(O)COC3)c2)CC1)(c1ccccc1)n1ncc2c1nc(N)n1nc(-c3ccco3)nc21 (stereo not shown) [Compound A91, 3-(4-(2-(5-amino-2-(furan-2-yl)-7H-pyrazolo[4,3-e][1,2,4]triazolo[1,5-c]pyrimidin-7-yl)-2-phenylpropanoyl)piperazin-1-yl)-N-((3-hydroxyoxetan-3-yl)methyl)benzamide]
1.7 | COCCOc1ccc(N2CCN(C(=O)C(C)(c3ccccc3C)n3ncc4c3nc(N)n3nc(-c5ccco5)nc43)CC2)cc1 (stereo not shown) [Compound A103, 2-(5-amino-2-(furan-2-yl)-7H-pyrazolo[4,3-e][1,2,4]triazolo[1,5-c]pyrimidin-7-yl)-1-(4-(4-(2-methoxyethoxy)phenyl)piperazin-1-yl)-2-(o-tolyl)propan-1-one]
13.3 | COCCOc1ccc(N2CCN(C(=O)C(c3ccc4ccccc4c3)n3ncc4c3nc(N)n3nc(-c5ccco5)nc43)CC2)cc1 (stereo not shown) [Compound A33, 2-(5-amino-2-(furan-2-yl)-7H-pyrazolo[4,3-e][1,2,4]triazolo[1,5-c]pyrimidin-7-yl)-1-(4-(4-(2-methoxyethoxy)phenyl)piperazin-1-yl)-2-(naphthalen-2-yl)ethan-1-one]
1.7 | COCCOc1ccc(N2CCN(C(=O)C(c3ccccc3)n3ncc4c3nc(N)n3nc(-c5ccco5)nc43)CC2)c(F)c1F (stereo not shown) [Compound A56, 2-(5-amino-2-(furan-2-yl)-7H-pyrazolo[4,3-e][1,2,4]triazolo[1,5-c]pyrimidin-7-yl)-1-(4-(2,3-difluoro-4-(2-methoxyethoxy)phenyl)piperazin-1-yl)-2-phenylethan-1-one]
2 | Nc1nc2c(cnn2C(C(=O)N2CCc3cc(F)ccc3C2)c2ccccc2)c2nc(-c3ccco3)nn12 (stereo not shown) [Compound B7, 2-(5-amino-2-(furan-2-yl)-7H-pyrazolo[4,3-e][1,2,4]triazolo[1,5-c]pyrimidin-7-yl)-1-(6-fluoro-3,4-dihydroisoquinolin-2(1H)-yl)-2-phenylethan-1-one]
21.4 | C[C@@](C(=O)N1CCN(c2ccc(OCCCN3CCCC3)cc2)CC1)(c1ccccc1)n1ncc2c1nc(N)n1nc(-c3ccco3)nc21 [Compound A79a, (S)-2-(5-amino-2-(furan-2-yl)-7H-pyrazolo[4,3-e][1,2,4]triazolo[1,5-c]pyrimidin-7-yl)-2-phenyl-1-(4-(4-(3-(pyrrolidin-1-yl)propoxy)phenyl)piperazin-1-yl)propan-1-one]
0.9 | COCCOc1ccc(N2CCN(C(=O)C(c3ccccc3)n3ncc4c3nc(N)n3nc(-c5ccco5)nc43)CC2C)cc1 (single isomer, unassigned) [Compound A46b]
